From ChEMBL document CHEMBL4196033, “Potent hydrazone derivatives targeting esophageal cancer cells” (Eur J Med Chem, 2018)
The source made the active and inactive calls. The rule behind the calls is not given here.

What was measured:
EC9706 [1] = experiment: Upregulation of p27 protein expression in human EC9706 cells at 8 uM after 24 to 48 hrs by Western blot analysis relative to control; format: functional
EC9706 [2] = experiment: Induction of ROS generation in human EC9706 cells at 4 uM after 24 hrs by DCFH-DA staining based flow cytometry relative to control; format: functional
PC-3 = experiment: Antiproliferative activity against human PC3 cells after 72 hrs by MTT assay; format: functional, cell-based; details: PC-3, 72 h
MGC-803 = experiment: Antiproliferative activity against human MGC803 cells after 72 hrs by MTT assay; format: functional, cell-based; details: MGC-803, 72 h
EC9706 [3] = experiment: Upregulation of p27 protein expression in human EC9706 cells at 4 uM after 24 to 48 hrs by Western blot analysis relative to control; format: functional
EC9706 [4] = experiment: Effect on Prxs-2 protein expression in human EC9706 cells at 2 to 8 uM after 48 hrs by Western blot analysis; format: functional, cell-based
ECa-109 cell line [5] = experiment: Induction of ROS generation in human EC109 cells at 2 to 4 uM after 24 hrs in presence of anti-oxidant NAC by DCFH-DA staining based flow cytometry; format: functional, cell-based
ECa-109 cell line [6] = experiment: Effect on Prxs-3 protein expression in human EC109 cells at 2 to 8 uM after 48 hrs by Western blot analysis; format: functional, cell-based
ECa-109 cell line [7] = experiment: Induction of apoptosis in human EC109 cells assessed as early apoptotic cells at 4 uM after 48 hrs by Annexin V-FITC/propidium iodide staining based flow cytometry (reference value: 0.43 to 1.15%); format: functional
ECa-109 cell line [8] = experiment: Induction of ROS generation in human EC109 cells at 4 uM after 24 hrs by DCFH-DA staining based flow cytometry relative to control; format: functional
ECa-109 cell line [9] = experiment: Induction of apoptosis in human EC109 cells assessed as early apoptotic cells at 4 uM after 48 hrs in presence of caspase inhibitor Z-VAD-FMK by Annexin V-FITC/propidium iodide staining based flow cytometry (reference value: 0.52%); format: functional
EC9706 [10] = experiment: Induction of apoptosis in human EC9706 cells assessed as increase in p53 protein expression after 48 hrs by Western blot analysis; format: functional, cell-based
MCF7 = experiment: Antiproliferative activity against human MCF7 cells after 72 hrs by MTT assay; format: functional, cell-based; details: MCF7, 72 h
ECa-109 cell line [11] = experiment: Induction of apoptosis in human EC109 cells assessed as live cells at 2 uM after 48 hrs by Annexin V-FITC/propidium iodide staining based flow cytometry (reference value: 95.2 to 99%); format: functional
EC9706 [12] = experiment: Cell cycle arrest in human EC9706 cells assessed as increase in G0/G1 phase population at 2 uM after 24 hrs by propidium iodide staining based flow cytometry relative to control; format: functional
Mus musculus [13] = experiment: Acute toxicity in C57BL/6 mouse assessed as histopathological changes in kidney at 2 g/kg, ig measured for 2 weeks by hematoxylin and eosin staining based microscopic method; format: organism-based; details: in vivo, po, 2000 mg/kg, 336 h
EC9706 [14] = experiment: Antiproliferative activity against human EC9706 cells after 24 hrs by MTT assay; format: functional, cell-based; details: EC9706, 24 h
ECa-109 cell line [15] = experiment: Induction of apoptosis in human EC109 cells assessed as increase in p53 protein expression after 48 hrs by Western blot analysis; format: functional, cell-based
EC9706 [16] = experiment: Induction of apoptosis in human EC9706 cells assessed as early apoptotic cells at 4 uM after 48 hrs in presence of caspase inhibitor Z-VAD-FMK by Annexin V-FITC/propidium iodide staining based flow cytometry (reference value: 0.33%); format: functional
ECa-109 cell line [17] = experiment: Induction of apoptosis in human EC109 cells at 2 to 4 uM after 48 hrs in presence of anti-oxidant NAC by Annexin V-FITC/propidium iodide staining based flow cytometry; format: functional, cell-based
EC9706 [18] = experiment: Cell cycle arrest in human EC9706 cells assessed as increase in G0/G1 phase population at 8 uM after 24 hrs by propidium iodide staining based flow cytometry relative to control; format: functional
Mus musculus [19] = experiment: Acute toxicity in C57BL/6 mouse assessed as histopathological changes in heart at 2 g/kg, ig measured for 2 weeks by hematoxylin and eosin staining based microscopic method; format: organism-based; details: in vivo, po, 2000 mg/kg, 336 h
EC9706 [20] = experiment: Induction of apoptosis in human EC9706 cells assessed as live cells at 8 uM after 48 hrs in presence of caspase inhibitor Z-VAD-FMK by Annexin V-FITC/propidium iodide staining based flow cytometry (reference value: 95.7%); format: functional
ECa-109 cell line [21] = experiment: Antiproliferative activity against human EC109 cells after 48 hrs by MTT assay; format: functional, cell-based; details: ECa-109, 48 h
Mus musculus [22] = experiment: Acute toxicity in C57BL/6 mouse assessed as histopathological changes in liver at 2 g/kg, ig measured for 2 weeks by hematoxylin and eosin staining based microscopic method; format: organism-based; details: in vivo, po, 2000 mg/kg, 336 h
ECa-109 cell line [23] = experiment: Induction of apoptosis in human EC109 cells assessed as necrotic cells at 8 uM after 48 hrs by Annexin V-FITC/propidium iodide staining based flow cytometry (reference value: 0.74 to 1.18%); format: functional
EC9706 [24] = experiment: Induction of ROS generation in human EC9706 cells at 2 uM after 24 hrs by DCFH-DA staining based flow cytometry relative to control; format: functional
EC9706 [25] = experiment: Induction of apoptosis in human EC9706 cells assessed as live cells at 4 uM after 48 hrs in presence of caspase inhibitor Z-VAD-FMK by Annexin V-FITC/propidium iodide staining based flow cytometry (reference value: 95.7%); format: functional
EC9706 [26] = experiment: Induction of apoptosis in human EC9706 cells assessed as necrotic cells at 4 uM after 48 hrs in presence of caspase inhibitor Z-VAD-FMK by Annexin V-FITC/propidium iodide staining based flow cytometry (reference value: 1.2%); format: functional
ECa-109 cell line [27] = experiment: Induction of morphological changes in human EC109 cells assessed as cell rounding after 48 hrs by Hoechst 33342 staining based fluorescence microscopic method; format: functional
ECa-109 cell line [28] = experiment: Induction of apoptosis in human EC109 cells assessed as necrotic cells at 2 uM after 48 hrs by Annexin V-FITC/propidium iodide staining based flow cytometry (reference value: 0.74 to 1.18%); format: functional
EC9706 [29] = experiment: Induction of apoptosis in human EC9706 cells assessed as early apoptotic cells at 4 uM after 48 hrs by Annexin V-FITC/propidium iodide staining based flow cytometry (reference value: 0.68 to 1.58%); format: functional
EC9706 [30] = experiment: Induction of apoptosis in human EC9706 cells at 2 to 4 uM after 48 hrs in presence of anti-oxidant NAC by Annexin V-FITC/propidium iodide staining based flow cytometry; format: functional, cell-based
ECa-109 cell line [31] = experiment: Induction of ROS generation in human EC109 cells at 8 uM after 24 hrs by DCFH-DA staining based flow cytometry relative to control; format: functional
ECa-109 cell line [32] = experiment: Effect on Prxs-1 protein expression in human EC109 cells at 2 to 8 uM after 48 hrs by Western blot analysis; format: functional, cell-based
EC9706 [33] = experiment: Induction of apoptosis in human EC9706 cells assessed as increase in cleaved caspase-8 protein expression after 48 hrs by Western blot analysis; format: functional, cell-based
ECa-109 cell line [34] = experiment: Anticlonogenic activity against human EC109 cells after 7 days by crystal violet staining based assay; format: functional, cell-based
EC9706 [35] = experiment: Induction of morphological changes in human EC9706 cells assessed as cell rounding after 48 hrs by Hoechst 33342 staining based fluorescence microscopic method; format: functional

In the case of `COc1ccc(/C=N/NC(=O)c2cccc(S(=O)(=O)N3CCOCC3)c2)c(O)c1`, the “fold change (FC)” value (EC9706 [1]) is reported as 1.7, the “fold change (FC)” value (EC9706 [2]) is reported as 1.45 and the IC50 (PC-3) is reported as 5.8 µM. The IC50 (MGC-803) was 2.07 µM, the “fold change (FC)” value (EC9706 [3]) was 1.4 and the Activity (EC9706 [4]) was “Active”. The Activity (ECa-109 cell line [5]) was “inactive”, the Activity (ECa-109 cell line [6]) was “Active” and the Activity (ECa-109 cell line [7]) was 17.8 - 22.4%. For the same compound, the “fold change (FC)” value (ECa-109 cell line [8]) was 2.05, the Activity (ECa-109 cell line [9]) was 9.34% and the Activity (EC9706 [10]) was “Dose-dependent effect”. The IC50 (MCF7) was 5.14 µM, the Activity (ECa-109 cell line [11]) was 79.1% and the “fold change (FC)” value (EC9706 [12]) was 1.07. For the same compound, the Activity (Mus musculus [13]) was “Non-Toxic”, the IC50 (EC9706 [14]) was > 20 µM and the Activity (ECa-109 cell line [15]) was “Dose-dependent effect”. For the same compound, the Activity (EC9706 [16]) was 13.3%, the Activity (ECa-109 cell line [17]) was “inactive” and the “fold change (FC)” value (EC9706 [18]) was 1.27. The Activity (Mus musculus [19]) was “Non-Toxic”, the Activity (EC9706 [20]) was 31% and the IC50 (ECa-109 cell line [21]) was 11.3 µM. For the same compound, the Activity (Mus musculus [22]) was “Non-Toxic”, the Activity (ECa-109 cell line [23]) was 2.23 - 13% and the “fold change (FC)” value (EC9706 [24]) was 1.16. The Activity (EC9706 [25]) was 42.1%, the Activity (EC9706 [26]) was 15.2% and the Activity (ECa-109 cell line [27]) was “Dose-dependent effect”. For the same compound, the Activity (ECa-109 cell line [28]) was 2.64%, the Activity (EC9706 [29]) was 10.8 - 29.9% and the Activity (EC9706 [30]) was “inactive”. The “fold change (FC)” value (ECa-109 cell line [31]) was 2.21, the Activity (ECa-109 cell line [32]) was “Active” and the Activity (EC9706 [33]) was “Dose-dependent effect”. For the same compound, the Activity (ECa-109 cell line [34]) was “Active” and the Activity (EC9706 [35]) was “Dose-dependent effect”.
